# Reference: patent US9162977B2, “Synthetic ion channels” (The University of Hong Kong, priority 2006, dated 2015)
# Entries after “also recorded” stand apart in the source; their conditions may differ.
# Assays:
# [1] = pH-stat fluorometric transport assay (HPTS-loaded liposomes); format: biochemical
# Text: This Example illustrates that the compound of Example 2 mediates chloride release when incorporated into liposomes. The liposome-based pH-stat fluorometric assay is an assay routinely used for identification of physiologically relevant ionophores, which are disclosed in (a) Deng, G., Dewa, T. and Regen, S. L. J. Am. Chem. Soc. 1996, 118, 8975; (b) Schlesinger, P. H., Ferdani, R., Liu, J., Pajewska, J., Pajewski, R., Saito, M., Shabany, H. and Gokel, G. W. J. Am. Chem. Soc. 2002, 124, 1848; (c) Sidorov, V., Kotch, F. W., Abdrakhmanova, G., Mizani, R., Fettinger, J. C. and Davis, J. T. J. Am. Chem. Soc. 2002, 124, 2267; (d) Sidorov, V., Kotch, F. W., Kuebler, J. L., Lam, Y.-F. and Davis, J. T. J. Am. Chem. Soc. 2003, 125, 2840; and (e) Baumeister, B., Sakai, N. and Matile, S. Angew. Chem., Int. Ed. 2000, 39, 1955, all of which are incorporated herein by reference. For example, in this assay, a controlled amount of the base and potential ionophore is added to a suspension of liposomes containing a pH-sensitive dye, 8-hydroxypyrene-1,3,6-trisulfonate (HPTS, pyranine). The resulting pH gradient across the bilayer membrane causes the efflux of hydronium ions or the influx of hydroxide ions and builds up an electrostatic potential. This potential can be compensated by the efflux of anions or influx of cations (H^+/M^+ or OH^−/A^− antiport and H^+/A^− or M^+/OH^− symport mechanisms are possible). If the compound of interest mediates such ion transport, the efflux of hydronium ions or the influx of hydroxide ions continues altering the […] pH and the fluorescence of the reporter dye.
# Example 2-mediated chloride release was determined in large unilamellar vesicles (LUVs) of 100 nm average dimension, as reported in Sidorov, V., Kotch, F. W., Abdrakhmanova, G., Mizani, R., Fettinger, J. C. and Davis, J. T. J. Am. Chem. Soc. 2002, 124, 2267. […] Importantly, Example 2 mediated electrolyte exchange with high anion selectivity. It mediated electrolyte exchange in the presence of chloride but not in the presence of sulfate (see FIG. 6).
# [2] = Single-channel recording by patch-clamp on giant liposomes; format: biochemical
# Text: Single-channel recording, using patch clamp techniques, is the most critical test for identifying ion channel formation, which is distinguished from other ion transport mechanisms such as ion carriers, and quantifying ion transport efficiency of a membrane channel. The channel-forming activity of Example 2 incorporated in lipid bilayers is examined using patch-clamp technique on giant liposomes.
# The two key properties of ion channels in nature are ion selectivity, that is, a channel permits only certain ionic species to flow through its pore, and gating referring to the mechanism of channel opening and closing.
# [3] = system: human embryonic kidney (HEK 293) cells; assay: Whole-cell patch-clamp recording of chloride currents; format: cell-based
# Experimental: The whole-cell configuration of the patch-clamp technique was used to examine the electrophysiological properties of the ionic currents induced by Example 2 in human embryonic kidney (HEK 293) cells. HEK 293 cell line originally obtained from the American Type Culture Collection, were cultured in DMEM supplemented with 10% FBS and 100 IU/ml penicillin G and 0.1 mg/ml streptomycin. Cells were grown at 37° C. in a 5% CO2 humidified incubator. Whole-cell chloride currents were recorded by using an EPC 9 patch clamp amplifier (HEKA Elektronik, Lambrecht/Pfalz, Germany) in voltage-clamp mode, controlled by Pulse/PulseFit 8.7 software (HEKA). Patch pipettes (resistance, 3-5 MΩ) were filled with a solution internal pipette solution containing CsCl 140, MgCl2 1, HEPES 10, EGTA 5, Na2ATP 5 (in mmol/L, pH 7.2 with CsOH). The bath solution contained NaCl 140, CsCl 5, CaCl2 1, MgCl2 1, HEPES 10 (in mmol/L, pH 7.4 with CsOH). After gigaohm seals were obtained, the membrane was ruptured with a pulsed negative pressure. Pipette and membrane capacitance were automatically compensated. Series resistance was typically compensated by 70%. […] All macroscopic currents were sampled at 50 kHz and filtered at 5 kHz, and data were analyzed with PulseFit (HEKA). Changes of Cl current were detected from the same cells before and after exposure to the bath solution containing Example 2 at the concentration of 50 nM. […]
compound,measurement,setting,value
CC(C)C[C@@H](ONC(=O)c1cccc(C(=O)NO[C@H](CC(C)C)C(=O)OC(C)(C)C)c1)C(=O)OC(C)(C)C [Example 1],melting point,,57 to 59 °C
CC(C)CNC(=O)[C@@H](CC(C)C)ONC(=O)c1cccc(C(=O)NO[C@H](CC(C)C)C(=O)NCC(C)C)c1 [Example 2],melting point,,176 to 178 °C
same,exchange between extra- and intravesicular electrolytes (chloride release),"[1]; LUVs of 100 nm, NaCl extra- and intravesicular buffers, FIG. 5","rapid, concentration-dependent exchange"
same,transport activity in LUVs loaded with sulfate,"[1]; LUVs symmetrically loaded with Na2SO4, FIG. 6",no transport activity was detected
same,chloride transport across lipid bilayers of chloride-containing liposomes,"[1]; LUVs, NaCl extra- and intravesicular buffers, FIG. 7 and FIG. 12",mediates chloride transport across the bilayer
same,change in conductance or reversal potential,[2]; NMDG-Cl in the bath solution replaced by KCl,no measurable change
same,ion selectivity of the channels formed,"[2]; giant liposomes, patch clamp",chloride selectivity; also recorded: anion selective
same,gating of the channels formed,"[2]; giant liposomes, patch clamp, FIG. 8",voltage dependent gating; also recorded: voltage-gated
same,primary single-channel conductance,"[2]; symmetric 0.2 M N-methyl-glucamine hydrochloride (NMDG-Cl) solutions, compound in bath solution, FIG. 8",54 pS
same,channel open probability (Po) and frequency,"[2]; upon increasing voltages of lipid bilayers within a physiologically relevant range, FIG. 8",enhanced steeply
same,whole cell (chloride) currents,"[3]; 50 nM in bath solution, room temperature, FIG. 9",dramatically increases cell chloride currents; also recorded: large increase
same,induced whole cell currents in the presence of an anion transport inhibitor,[3]; in the presence of DIDS,not reduced
CCCCCCCCCCCCCCCCCCNC(=O)[C@@H](CC(C)C)ONC(=O)c1cccc(C(=O)NO[C@H](CC(C)C)C(=O)NCCCCCCCCCCCCCCCCCC)c1 [Example 5],melting point,,88 to 90 °C
CC(C)CNC(=O)[C@@H](CC(C)C)ONC(=O)c1ccccc1 [Example 6],melting point,,130 to 132 °C
CC(C)CNC(=O)[C@@H](CC(C)C)ONC(=O)c1cccc(C(=O)NO[C@H](CC(C)C)C(=O)NCC(C)C)n1 [Example 7],melting point,,175 to 177 °C
CC(C)CNC(=O)[C@H](CC(C)C)NC(=O)c1cccc(C(=O)N[C@@H](CC(C)C)C(=O)NCC(C)C)c1 [Example 8],melting point,,240 to 242 °C
CC(C)CNC(=O)[C@H](CC(C)C)OC(=O)c1cccc(C(=O)O[C@@H](CC(C)C)C(=O)NCC(C)C)c1 [Example 9],melting point,,137 to 139 °C
